Assay [1] addresses RPS6KA2 KD2 (human) (UniProt Q15349). As to the kind of experiment: KINOMEscan competition binding. The settings on record: compound 10.0 µM.
In assay [2] the target is PLK1 (human) (UniProt P53350). Put plainly: KINOMEscan competition binding. The settings on record: compound 10.0 µM.
Assay [3] concerns the target TTK (human) (UniProt P33981). As to the kind of experiment: KINOMEscan competition binding. The settings on record: for kinase still bound, per cent of control: compound 10.0 µM.
The target in assay [4] is TTK (human) (UniProt P33981). Put plainly: SelectScreen, TR FRET.
For assay [5], the target named is STK17A (human) (UniProt Q9UEE5). As to the kind of experiment: KINOMEscan competition binding. The settings on record: compound 10.0 µM.
For assay [6], the target named is CAMKK2 (human) (UniProt Q96RR4). As to the kind of experiment: KINOMEscan competition binding. The settings on record: compound 10.0 µM.
Assay [7] has as its target TNK1 (human) (UniProt Q13470). Put plainly: KINOMEscan competition binding. The settings on record: compound 10.0 µM.
Assay [8] has as its target STK17B (human) (UniProt O94768). Put plainly: KINOMEscan competition binding. The settings on record: compound 10.0 µM.
Assay [9] addresses STK33 (human) (UniProt Q9BYT3). Put plainly: KINOMEscan competition binding. The settings on record: compound 10.0 µM.
Assay [10] concerns the target RIOK2 (human) (UniProt Q9BVS4). As to the kind of experiment: KINOMEscan competition binding. The settings on record: compound 10.0 µM.
The target in assay [11] is PLK3 (human) (UniProt Q9H4B4). As to the kind of experiment: KINOMEscan competition binding. The settings on record: compound 10.0 µM.
Assay [12] deals with PLK4 (human) (UniProt O00444). As to the kind of experiment: KINOMEscan competition binding. The settings on record: compound 10.0 µM.
Assay [13] concerns the target DCLK1 (human) (UniProt O15075). As to the kind of experiment: KINOMEscan competition binding. The settings on record: compound 10.0 µM.
The target in assay [14] is DCLK2 (human) (UniProt Q8N568). As to the kind of experiment: KINOMEscan competition binding. The settings on record: compound 10.0 µM.
Assay [15] addresses MAPK7 (human) (UniProt Q13164). As to the kind of experiment: KINOMEscan competition binding. The settings on record: compound 10.0 µM.
Assay [16] has as its target GAK (human) (UniProt O14976). As to the kind of experiment: KINOMEscan competition binding. The settings on record: compound 10.0 µM.
The target of assay [17] is MAP2K3 (human) (UniProt P46734). Put plainly: KINOMEscan competition binding. The settings on record: compound 10.0 µM.
The target of assay [18] is MYLK (human) (UniProt Q15746). Put plainly: KINOMEscan competition binding. The settings on record: compound 10.0 µM.
The target in assay [19] is PTK2B (human) (UniProt Q14289). As to the kind of experiment: KINOMEscan competition binding. The settings on record: compound 10.0 µM.
Assay [20] concerns the target PTK2 (human) (UniProt Q05397). Put plainly: KINOMEscan competition binding. The settings on record: compound 10.0 µM.
The target of assay [21] is FLT3 (human) (UniProt P36888). As to the kind of experiment: KINOMEscan competition binding. The settings on record: compound 10.0 µM.
The target in assay [22] is PDGFRB (human) (UniProt P09619). Put plainly: KINOMEscan competition binding. The settings on record: compound 10.0 µM.
Assay [23] concerns the target CLK2 (human) (UniProt P49760). Put plainly: KINOMEscan competition binding. The settings on record: compound 10.0 µM.
In assay [24] the target is KIT (human) (UniProt P10721). As to the kind of experiment: KINOMEscan competition binding. The settings on record: compound 10.0 µM.
The test system of assay [25] is FLT3 (human), P36888 [K663Q]. Put plainly: KINOMEscan competition binding. The settings on record: compound 10.0 µM.
The subject of assay [26] is KIT (human), P10721 [V559D]. As to the kind of experiment: KINOMEscan competition binding. The settings on record: compound 10.0 µM.
Assay [27] addresses PIM2 (human) (UniProt Q9P1W9). As to the kind of experiment: SelectScreen, TR FRET. On the technique in general: TR-FRET usually uses a lanthanide donor and a delayed reading to cut background.
Assay [28] concerns the target PIM1 (human) (UniProt P11309). As to the kind of experiment: SelectScreen, TR FRET.
The target of assay [29] is RIOK3 (human) (UniProt O14730). Put plainly: KINOMEscan competition binding. The settings on record: compound 10.0 µM.
Assay [30] deals with BMP2K (human) (UniProt Q9NSY1). As to the kind of experiment: KINOMEscan competition binding. The settings on record: compound 10.0 µM.
Assay [31] has as its target SRPK1 (human) (UniProt Q96SB4). Put plainly: KINOMEscan competition binding. The settings on record: compound 10.0 µM.
In assay [32] the target is MYLK4 (human) (UniProt Q86YV6). Put plainly: KINOMEscan competition binding. The settings on record: compound 10.0 µM.
Assay [33] has as its target MKNK2 (human) (UniProt Q9HBH9). As to the kind of experiment: KINOMEscan competition binding. The settings on record: compound 10.0 µM.
For assay [34], the target named is RIOK1 (human) (UniProt Q9BRS2). As to the kind of experiment: KINOMEscan competition binding. The settings on record: compound 10.0 µM.
Assay [35] concerns the target TNK2 (human) (UniProt Q07912). Put plainly: KINOMEscan competition binding. The settings on record: compound 10.0 µM.
The target of assay [36] is ULK2 (human) (UniProt Q8IYT8). As to the kind of experiment: KINOMEscan competition binding. The settings on record: compound 10.0 µM.
Assay [37] deals with ROS1 (human) (UniProt P08922). Put plainly: KINOMEscan competition binding. The settings on record: compound 10.0 µM.
Assay [38] relates to ABL1 (human), P00519 [F317I]. As to the kind of experiment: KINOMEscan competition binding. The settings on record: compound 10.0 µM.
Assay [39] addresses FRK (human) (UniProt P42685). As to the kind of experiment: KINOMEscan competition binding. The settings on record: compound 10.0 µM.
The target of assay [40] is ALK (human) (UniProt Q9UM73). As to the kind of experiment: KINOMEscan competition binding. The settings on record: compound 10.0 µM.
Assay [41] addresses PIM3 (human) (UniProt Q86V86). Put plainly: KINOMEscan competition binding. The settings on record: compound 10.0 µM.
The target in assay [42] is SRPK3 (human) (UniProt Q9UPE1). As to the kind of experiment: KINOMEscan competition binding. The settings on record: compound 10.0 µM.
For assay [43], the target named is TYK2 JH2 pseudokinase (human) (UniProt P29597). Put plainly: KINOMEscan competition binding. The settings on record: compound 10.0 µM.
Assay [44] addresses AAK1 (human) (UniProt Q2M2I8). As to the kind of experiment: KINOMEscan competition binding. The settings on record: compound 10.0 µM.

13 compounds from the kinase profiling compilation of Christmann-Franck et al. (2016) can be followed below.

A value given as a limit tells only on which side of the number the result lay.

A word on the Kd: it is the free concentration of one partner at which half of the binding sites on the other are occupied at equilibrium, for simple one-to-one binding. A higher Kd goes with weaker binding. One may read the IC50 as the midpoint of a concentration-inhibition curve. Read a high IC50 as weaker potency.

Chain of PLK4 (human) (O00444 whole entry, looked up): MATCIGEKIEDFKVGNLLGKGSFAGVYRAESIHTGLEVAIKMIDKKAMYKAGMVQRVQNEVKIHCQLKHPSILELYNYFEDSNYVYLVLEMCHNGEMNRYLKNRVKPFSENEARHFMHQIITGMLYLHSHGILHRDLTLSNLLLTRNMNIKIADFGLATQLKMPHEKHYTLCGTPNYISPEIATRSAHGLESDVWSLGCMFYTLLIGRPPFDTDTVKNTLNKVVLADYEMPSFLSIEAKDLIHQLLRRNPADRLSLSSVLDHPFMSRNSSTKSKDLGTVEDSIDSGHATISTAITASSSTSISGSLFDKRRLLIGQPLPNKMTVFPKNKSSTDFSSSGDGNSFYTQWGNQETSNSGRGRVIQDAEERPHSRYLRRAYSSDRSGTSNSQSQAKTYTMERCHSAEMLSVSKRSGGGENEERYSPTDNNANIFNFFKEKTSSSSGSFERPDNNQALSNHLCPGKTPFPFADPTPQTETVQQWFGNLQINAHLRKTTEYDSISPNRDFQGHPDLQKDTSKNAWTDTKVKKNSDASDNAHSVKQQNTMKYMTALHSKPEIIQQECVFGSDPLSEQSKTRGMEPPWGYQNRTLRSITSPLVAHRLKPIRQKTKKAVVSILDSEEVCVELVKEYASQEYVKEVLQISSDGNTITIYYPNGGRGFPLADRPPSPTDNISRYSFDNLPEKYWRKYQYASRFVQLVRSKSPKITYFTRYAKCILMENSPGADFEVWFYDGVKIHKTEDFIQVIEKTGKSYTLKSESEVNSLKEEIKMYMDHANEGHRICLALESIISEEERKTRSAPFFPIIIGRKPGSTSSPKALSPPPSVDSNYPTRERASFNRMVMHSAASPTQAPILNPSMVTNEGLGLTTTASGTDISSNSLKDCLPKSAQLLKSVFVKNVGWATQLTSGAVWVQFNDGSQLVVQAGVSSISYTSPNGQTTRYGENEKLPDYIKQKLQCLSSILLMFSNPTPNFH
Chain of PLK1 (human) (P53350 whole entry, looked up): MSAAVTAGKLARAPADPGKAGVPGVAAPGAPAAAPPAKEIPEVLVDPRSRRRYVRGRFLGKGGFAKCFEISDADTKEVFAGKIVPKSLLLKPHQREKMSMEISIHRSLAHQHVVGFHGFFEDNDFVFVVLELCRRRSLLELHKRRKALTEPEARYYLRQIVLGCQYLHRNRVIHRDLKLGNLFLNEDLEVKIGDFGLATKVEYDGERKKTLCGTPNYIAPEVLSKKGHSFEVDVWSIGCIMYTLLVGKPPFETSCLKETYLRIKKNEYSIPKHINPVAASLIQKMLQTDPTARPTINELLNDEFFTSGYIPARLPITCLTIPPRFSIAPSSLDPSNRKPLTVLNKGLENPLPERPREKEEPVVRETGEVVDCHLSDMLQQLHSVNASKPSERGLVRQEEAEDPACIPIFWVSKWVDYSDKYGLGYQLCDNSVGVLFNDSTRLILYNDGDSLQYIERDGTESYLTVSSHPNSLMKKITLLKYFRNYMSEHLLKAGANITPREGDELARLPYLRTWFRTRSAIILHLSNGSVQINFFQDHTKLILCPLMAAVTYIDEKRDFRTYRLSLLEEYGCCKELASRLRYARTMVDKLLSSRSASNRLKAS
Chain of STK33 (human) (Q9BYT3 whole entry, looked up): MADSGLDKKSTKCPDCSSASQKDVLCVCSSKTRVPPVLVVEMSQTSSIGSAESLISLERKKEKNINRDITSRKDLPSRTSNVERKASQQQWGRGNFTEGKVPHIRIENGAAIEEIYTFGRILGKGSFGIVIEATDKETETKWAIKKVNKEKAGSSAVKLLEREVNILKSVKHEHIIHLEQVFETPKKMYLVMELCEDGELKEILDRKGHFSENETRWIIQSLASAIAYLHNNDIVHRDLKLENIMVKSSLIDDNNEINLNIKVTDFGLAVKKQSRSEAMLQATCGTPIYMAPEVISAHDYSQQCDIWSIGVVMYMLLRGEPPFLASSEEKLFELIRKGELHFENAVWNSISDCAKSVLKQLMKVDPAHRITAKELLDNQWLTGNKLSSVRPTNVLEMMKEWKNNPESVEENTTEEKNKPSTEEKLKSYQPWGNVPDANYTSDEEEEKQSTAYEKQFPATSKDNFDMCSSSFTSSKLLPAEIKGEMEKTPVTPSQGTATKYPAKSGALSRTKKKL
Chain of TTK (human) (P33981 whole entry, looked up): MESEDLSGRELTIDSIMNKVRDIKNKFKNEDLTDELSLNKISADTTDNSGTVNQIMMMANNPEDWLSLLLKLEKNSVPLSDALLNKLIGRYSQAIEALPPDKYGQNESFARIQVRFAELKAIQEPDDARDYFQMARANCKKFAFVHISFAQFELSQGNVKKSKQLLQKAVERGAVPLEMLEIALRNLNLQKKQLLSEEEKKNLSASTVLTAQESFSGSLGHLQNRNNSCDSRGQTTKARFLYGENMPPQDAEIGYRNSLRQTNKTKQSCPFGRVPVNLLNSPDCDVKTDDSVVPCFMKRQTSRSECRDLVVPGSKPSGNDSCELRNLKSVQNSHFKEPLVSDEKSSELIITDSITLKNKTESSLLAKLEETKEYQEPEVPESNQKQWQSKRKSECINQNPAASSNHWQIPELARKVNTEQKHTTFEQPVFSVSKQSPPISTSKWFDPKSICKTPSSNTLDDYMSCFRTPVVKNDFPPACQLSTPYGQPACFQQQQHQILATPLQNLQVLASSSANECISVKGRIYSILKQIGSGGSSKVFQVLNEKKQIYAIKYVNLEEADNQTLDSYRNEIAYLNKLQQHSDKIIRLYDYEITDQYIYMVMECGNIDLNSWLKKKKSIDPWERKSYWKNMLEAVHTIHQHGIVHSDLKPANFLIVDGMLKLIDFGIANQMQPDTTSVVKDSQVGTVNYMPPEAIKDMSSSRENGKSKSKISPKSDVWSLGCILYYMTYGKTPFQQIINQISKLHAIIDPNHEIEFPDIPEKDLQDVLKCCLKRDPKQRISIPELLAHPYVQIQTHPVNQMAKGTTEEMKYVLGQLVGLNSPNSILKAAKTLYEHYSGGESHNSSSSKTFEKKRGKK
Chain of DCLK1 (human) (O15075 whole entry, looked up): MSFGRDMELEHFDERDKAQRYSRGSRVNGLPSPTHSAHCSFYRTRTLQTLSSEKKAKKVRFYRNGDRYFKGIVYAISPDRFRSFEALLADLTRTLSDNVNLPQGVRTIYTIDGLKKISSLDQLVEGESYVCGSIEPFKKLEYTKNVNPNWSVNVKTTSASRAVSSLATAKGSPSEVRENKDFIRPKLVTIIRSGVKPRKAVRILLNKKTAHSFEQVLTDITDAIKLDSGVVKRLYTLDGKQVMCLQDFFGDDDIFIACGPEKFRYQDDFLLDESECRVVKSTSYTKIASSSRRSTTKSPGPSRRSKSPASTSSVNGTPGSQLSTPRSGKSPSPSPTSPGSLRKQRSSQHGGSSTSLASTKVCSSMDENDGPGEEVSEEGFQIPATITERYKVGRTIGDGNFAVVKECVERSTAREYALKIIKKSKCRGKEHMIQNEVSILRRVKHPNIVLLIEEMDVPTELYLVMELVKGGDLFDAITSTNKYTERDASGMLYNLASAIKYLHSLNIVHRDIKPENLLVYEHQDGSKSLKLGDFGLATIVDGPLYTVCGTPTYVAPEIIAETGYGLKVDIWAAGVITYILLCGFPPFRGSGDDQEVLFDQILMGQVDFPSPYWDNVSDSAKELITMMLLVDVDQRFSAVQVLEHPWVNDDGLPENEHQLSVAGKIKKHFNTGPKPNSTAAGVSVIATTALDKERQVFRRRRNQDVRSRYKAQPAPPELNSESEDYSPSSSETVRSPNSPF
Chain of DCLK2 (human) (Q8N568 whole entry, looked up): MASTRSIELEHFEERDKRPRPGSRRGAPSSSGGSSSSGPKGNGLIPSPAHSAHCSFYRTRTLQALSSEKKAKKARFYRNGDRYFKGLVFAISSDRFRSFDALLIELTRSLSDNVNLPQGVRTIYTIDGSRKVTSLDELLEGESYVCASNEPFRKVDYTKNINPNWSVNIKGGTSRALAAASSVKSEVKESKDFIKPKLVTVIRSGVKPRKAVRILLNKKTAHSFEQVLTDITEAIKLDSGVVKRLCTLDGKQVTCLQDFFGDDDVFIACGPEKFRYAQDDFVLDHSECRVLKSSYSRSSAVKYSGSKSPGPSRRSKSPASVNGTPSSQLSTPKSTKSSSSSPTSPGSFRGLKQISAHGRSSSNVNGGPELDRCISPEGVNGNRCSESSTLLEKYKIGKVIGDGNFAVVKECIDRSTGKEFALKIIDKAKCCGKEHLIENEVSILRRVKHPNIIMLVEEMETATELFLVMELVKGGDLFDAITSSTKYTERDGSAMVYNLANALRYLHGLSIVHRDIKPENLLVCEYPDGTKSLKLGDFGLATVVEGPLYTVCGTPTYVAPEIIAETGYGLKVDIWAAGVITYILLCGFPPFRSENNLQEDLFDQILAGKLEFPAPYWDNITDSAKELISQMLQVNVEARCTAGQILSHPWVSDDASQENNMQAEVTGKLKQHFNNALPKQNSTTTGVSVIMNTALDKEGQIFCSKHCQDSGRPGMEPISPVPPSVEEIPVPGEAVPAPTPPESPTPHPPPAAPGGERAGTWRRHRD
Chain of MYLK4 (human) (Q86YV6 whole entry, looked up): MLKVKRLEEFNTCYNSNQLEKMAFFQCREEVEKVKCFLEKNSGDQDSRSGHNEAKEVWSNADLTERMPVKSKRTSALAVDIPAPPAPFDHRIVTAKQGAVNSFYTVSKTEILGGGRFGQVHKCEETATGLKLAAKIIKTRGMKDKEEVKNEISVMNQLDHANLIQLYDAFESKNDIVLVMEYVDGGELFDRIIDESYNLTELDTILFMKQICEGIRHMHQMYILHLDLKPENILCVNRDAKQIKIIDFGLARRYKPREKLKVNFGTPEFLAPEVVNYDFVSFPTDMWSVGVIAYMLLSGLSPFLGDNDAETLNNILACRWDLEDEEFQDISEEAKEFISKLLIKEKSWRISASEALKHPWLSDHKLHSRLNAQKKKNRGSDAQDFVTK

For the compound `CCN1C(=O)CCN(C2CCCC2)c2nc(Nc3ccc(N4CCC(O)CC4)cc3OC(C)C)ncc21`, the results for the kinase still bound, per cent of control in assay [1], in [2] and in assay [3] were 12%, 4.1% and 1.9%, respectively. Moreover, in [3], the Kd amounted to 0.253 µM. In [4], this compound had an IC50 of 1.09 µM.

Take `COc1cc(C(=O)NC2CCC(O)CC2)ccc1Nc1ncc2c(n1)N(C1CCCC1)[C@@H]1CCC[C@@H]1C(=O)N2C` (stereo partly drawn): the kinase still bound, per cent of control came out at 0% in assay [5]; 0% in assay [2]; 27% in [6]; 14% in assay [7]; 0% in [8]; 34% in [9]. Further, the kinase still bound, per cent of control came to 0.5% in assay [10]; 32% in assay [3]; 0.9% in assay [11]; 4.3% in assay [12]; 8.2% in assay [13]; 17% in assay [14]. The kinase still bound, per cent of control in [15] was 14%; in [16], 28%; in [17] it was 0.3%; in assay [18], 1.7%.

Take `COc1cc(N(C)CCCO)ccc1Nc1ncc2c(n1)N(C1CCCC1)CCC(=O)N2C`: the kinase still bound, per cent of control in assay [2] amounted to 1.7%; in [7], 31%; in [9], 11%; in assay [3], 2.6%; in assay [19], 29%; in assay [11], 0%. Further, the kinase still bound, per cent of control was found to be 12% in assay [12], 16% in assay [20] and 1.9% in [16]. The same compound displayed a Kd in assay [3] of 0.0588 µM. For the same compound, the IC50 in [4] stood at 0.64 µM.

In the case of `CC[C@@H]1C(=O)N(C)c2cnc(Nc3ccc(N4CCCC(O)C4)cc3OC)nc2N1C1CCCC1` (stereo partly drawn), the Kd in [3] was 2.65 µM. Also, in assay [4], the IC50 was above 10 µM.

On to `CC[C@@H]1C(=O)N(C)c2cnc(Nc3ccc(N4CCC(O)CC4)cc3OC)nc2N1C1CCCC1`, for which the Kd in [3] came out at 1.41 µM. For the same compound, the IC50 in [4] was above 10 µM.

As to `CCN1C(=O)CCN(C2CCCC2)c2nc(Nc3ccc(N4CCC(O)CC4)cn3)ncc21`, the kinase still bound, per cent of control in assay [21] was determined as 31%; in assay [1] it was 32%; in assay [2] it was 1.8%; in assay [22], 11%; in [23], 33%; in [24] it was 33%. Further, the kinase still bound, per cent of control came to 23% in assay [9]; 2% in assay [3]; 27% in assay [25]; 24% in assay [12]; 8.2% in [13]; 30% in [14]. Moreover, the figures for the kinase still bound, per cent of control in [16] and in assay [26] were 16% and 31%, respectively. The compound further displayed a dissociation constant Kd in assay [3] of 0.582 µM. The compound further had an IC50 in assay [4] of 3.45 µM.

`CC[C@@H]1C(=O)N(C)c2cnc(Nc3ccc(N(C)CCO)cc3OC)nc2N1C1CCCC1` displayed a Kd in assay [3] of 4.7 µM. The compound also gave an IC50 in [4] above 10 µM.

For the compound `O=C1NC(=S)S/C1=C\c1ccc(-c2cccc3cc[nH]c23)o1`, the IC50 worked out at 0.145 µM in [4], 0.509 µM in assay [27] and 0.905 µM in [28].

In the case of `NS(=O)(=O)c1ccc(-c2ccc(/C=C3\C(=O)Nc4cccc(Br)c43)o2)cc1`, the kinase still bound, per cent of control in assay [29] was 17%; in assay [30] it was 34%; in [3], 28%; in assay [31], 16%; in assay [32], 1.8%; in assay [33] it was 34%. In addition, the kinase still bound, per cent of control in [34] came out at 15%.

As to `CCOc1cc(N2CCC(O)CC2)ccc1Nc1ncc2c(n1)N(C1CCCC1)CCC(=O)N2`, the Kd in [3] was 0.65 µM. In assay [4], this compound yielded an IC50 of 7.45 µM.

Compound `CC[C@@H]1C(=O)N(C)c2cnc(Nc3ccc(N(C)CCCO)cc3OC)nc2N1C1CCCC1` returned a Kd in assay [3] of 3.1 µM. Further, the IC50 in [4] was above 10 µM.

As to `COc1cc(N2CCN(C)CC2)ccc1Nc1ncc2c(n1)N(C(C)C)c1ccccc1C(=O)N2C`, the kinase still bound, per cent of control in assay [2] came out at 25%; in [7], 3.8%; in [35], 27%; in assay [36], 25%; in assay [37], 9.2%; in [3], 8%. For the same compound, the kinase still bound, per cent of control turned out to be 0.15% in assay [12]; 22% in assay [38]; 1.2% in assay [13]; 1.2% in assay [14]; 18% in assay [20]; 0% in assay [15]. Also, the kinase still bound, per cent of control in [39] was found to be 31%; in assay [40], 14%.

For `NS(=O)(=O)c1ccc(-c2ccc(/C=C3\C(=O)Nc4ccccc43)o2)cc1`, the kinase still bound, per cent of control in [29] is 6.2%; in [5], 12%; in assay [23], 25%; in assay [30], 7.7%; in assay [41] it was 28%; in assay [42], 26%. Also, the kinase still bound, per cent of control turned out to be 24% in assay [43]; 23% in assay [44]; 12% in [31]; 3.1% in [32]; 11% in [34].
